Experimental findings from PubChem BioAssay (NCI) are described below.

Test systems include KM12 colon; HOP-92 NSCLC; A498 renal; 786-0 renal; SK-MEL-28 melanoma; SK-OV-3 ovarian; U251 CNS; SF-268 CNS; UACC-62 melanoma; K-562 leukemia.
Common to all, as to test: inhibition of tumour cell growth, NCI panel, 48 h

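Dose response: 5 concentrations. Exposure: 48 h. Format: 96-well plates. Endpoint: linear interpolation; highest concentration if not reached. GI50 marks 50% less growth. Definition used: TGI = concentration required for complete inhibition of growth.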

On to `COc1cnc2c(c1)C(=O)c1c-2n(CCCN2CCN(CCO)CC2)c(=O)c2cc([N+](=O)[O-])ccc12`, for which the GI50 in the test with KM12 colon was 1.74 µM; in the test on HOP-92 NSCLC, 13300 nM; in the test with A498 renal, 794 nM; in the test on 786-0 renal, 1.61 µM; with SK-MEL-28 melanoma, 2.01 µM; in the test on SK-OV-3 ovarian, 4.99 µM. Further, the GI50 in the test with U251 CNS is 1.16 µM; in the test with SF-268 CNS, 1.07 µM; in the test on UACC-62 melanoma, 1.22 µM. Besides, the TGI with KM12 colon turned out to be 4.41 µM; in the test with HOP-92 NSCLC, 31 µM; in the test on A498 renal, 19.7 µM; with 786-0 renal it was 3.13 µM; in the test with SK-MEL-28 melanoma, 4.16 µM; with SK-OV-3 ovarian, 20.2 µM. The TGI in the test with U251 CNS worked out at 2.42 µM; in the test with SF-268 CNS, 4.92 µM; in the test on UACC-62 melanoma it was 3.16 µM.
As to `O=C1c2cccc3cc([N+](=O)[O-])cc(c23)C(=O)N1O`, the TGI is 61.7 µM in the test on KM12 colon; over 100 µM in the test with HOP-92 NSCLC; over 100 µM in the test on 786-0 renal; over 100 µM in the test on SK-MEL-28 melanoma; over 100 µM with SK-OV-3 ovarian; over 100 µM with U251 CNS. The TGI in the test with SF-268 CNS was over 100 µM; in the test on UACC-62 melanoma, 81.4 µM; with K-562 leukemia it was over 100 µM.
For the molecule `CN(C)CCOc1nc2ccccc2c2c1-c1ccc(Cl)cc1C2=O`, the GI50 was 0.441 µM in the test on KM12 colon; 748 nM in the test on HOP-92 NSCLC; 1190 nM in the test on A498 renal; 0.889 µM with 786-0 renal; 1.65 µM in the test on SK-MEL-28 melanoma; 1.76 µM in the test on SK-OV-3 ovarian. Moreover, the GI50 is 0.38 µM in the test with U251 CNS, 0.577 µM in the test on SF-268 CNS and 1.38 µM with UACC-62 melanoma. Also, the TGI in the test on KM12 colon is 1.57 µM; in the test with HOP-92 NSCLC, 12.3 µM; in the test on A498 renal, 2.87 µM; in the test with 786-0 renal it was 3.26 µM; in the test on SK-MEL-28 melanoma it was 3.15 µM; with SK-OV-3 ovarian, over 37 µM. Further, the TGI was found to be 1.59 µM with U251 CNS, 2.32 µM in the test on SF-268 CNS and 2.93 µM with UACC-62 melanoma.
Take `CCc1oc2ccc(OC)c3c2c1C=CC=C3`: the TGI in the test with KM12 colon, with A498 renal, with 786-0 renal, with SK-MEL-28 melanoma, in the test with SK-OV-3 ovarian and with U251 CNS was over 100 µM throughout. Further, the TGI in the test on SF-268 CNS, in the test on UACC-62 melanoma and with K-562 leukemia was over 100 µM each time.
For the molecule `COc1ccc(-n2sc(=O)n(Cc3ccc(COC(=O)C(C)c4ccc(CC(C)C)cc4)cc3)c2=O)cc1` (stereo not drawn), the GI50 in the test with KM12 colon was 7.7 µM; in the test with HOP-92 NSCLC, 1010 nM; in the test on 786-0 renal it was 6.13 µM; with SK-MEL-28 melanoma, 3.02 µM; with SK-OV-3 ovarian, 28 µM; in the test with U251 CNS, 6.83 µM. Besides, the values for the GI50 in the test with SF-268 CNS, in the test with UACC-62 melanoma and in the test with K-562 leukemia were 5.82 µM, 4.03 µM and 1.43 µM, respectively. The TGI with KM12 colon was 14.6 µM; in the test with HOP-92 NSCLC, 3.14 µM; with 786-0 renal it was 12.9 µM; in the test with SK-MEL-28 melanoma it was 9.53 µM; in the test on SK-OV-3 ovarian, 50 µM; with U251 CNS, 14.5 µM. Further, the figures for the TGI in the test on SF-268 CNS, in the test with UACC-62 melanoma and in the test with K-562 leukemia were 12.2 µM, 10.5 µM and 10.4 µM, respectively.
`Cc1sc(/N=C2/NC(=O)CS2)nc1-c1nc(/N=C2/NC(=O)CS2)sc1C`: the GI50 was 28.9 µM in the test with KM12 colon; 47100 nM in the test on A498 renal; over 50 µM in the test on 786-0 renal; 26.7 µM with SK-MEL-28 melanoma; over 50 µM in the test on U251 CNS; 36.4 µM with SF-268 CNS. The figures for the GI50 with UACC-62 melanoma and with K-562 leukemia were 15.9 µM and 26.8 µM, respectively. Also, the TGI with KM12 colon, in the test on A498 renal, with 786-0 renal, with SK-MEL-28 melanoma, in the test with U251 CNS and with SF-268 CNS was over 50 µM in each case. Further, the TGI in the test on UACC-62 melanoma and in the test on K-562 leukemia was over 50 µM in each case.
`Oc1[nH]c2ccc(Cl)cc2c1/C=c1/ccc2c(c1)N=C(c1cc(F)cc(F)c1)N=2`: the GI50 is 3.55 µM in the test with KM12 colon; 2410 nM with HOP-92 NSCLC; 3.66 µM in the test with 786-0 renal; 5.06 µM in the test with SK-MEL-28 melanoma; 31.9 µM with SK-OV-3 ovarian; 3.7 µM with SF-268 CNS. Also, the GI50 is 3.43 µM in the test on UACC-62 melanoma and 3.12 µM with K-562 leukemia. Besides, the TGI was over 100 µM with KM12 colon; 31.1 µM in the test on HOP-92 NSCLC; over 100 µM in the test with 786-0 renal; over 100 µM in the test with SK-MEL-28 melanoma; over 100 µM in the test with SK-OV-3 ovarian; over 100 µM in the test with SF-268 CNS. Also, the TGI in the test with UACC-62 melanoma and in the test with K-562 leukemia was over 100 µM in each case.
On to `CON`, for which the GI50 with KM12 colon was over 100 µM; in the test on HOP-92 NSCLC it was over 100000 nM; in the test with 786-0 renal, over 100 µM; with SK-MEL-28 melanoma it was over 100 µM; in the test on SK-OV-3 ovarian, over 100 µM; with U251 CNS it was over 100 µM. Besides, the GI50 in the test on SF-268 CNS and in the test with UACC-62 melanoma was over 100 µM each time. Besides, the TGI with KM12 colon, in the test on HOP-92 NSCLC, in the test with 786-0 renal, with SK-MEL-28 melanoma, in the test with SK-OV-3 ovarian and with U251 CNS was over 100 µM each time. Besides, the TGI in the test with SF-268 CNS and with UACC-62 melanoma was over 100 µM in each case.
On to `CCc1ccccc1-n1c(N)c(C#N)c(-c2ccc(OC)c(OC)c2)c(C#N)c1=O`, for which the GI50 is 16.9 µM in the test on KM12 colon; 283 nM in the test on HOP-92 NSCLC; 18.8 µM with 786-0 renal; 20.1 µM with SK-MEL-28 melanoma; 17.7 µM in the test on SK-OV-3 ovarian; 16.1 µM in the test with U251 CNS. Moreover, the GI50 in the test on SF-268 CNS was 16.2 µM; with UACC-62 melanoma, 16.3 µM; with K-562 leukemia it was over 100 µM. For the same molecule, the TGI amounted to 34.6 µM in the test on KM12 colon; 29 µM in the test with HOP-92 NSCLC; 33.3 µM with 786-0 renal; 41.8 µM in the test with SK-MEL-28 melanoma; 36.6 µM in the test on SK-OV-3 ovarian; 29.8 µM with U251 CNS. Further, the TGI in the test on SF-268 CNS was 31.6 µM; in the test on UACC-62 melanoma, 37.7 µM; with K-562 leukemia it was over 100 µM.
